The values that follow come from US20260283959A1, “APPLICATION OF […] POWDER INHALER IN PREPARATION OF MEDICAMENT FOR TREATING ACUTE LUNG INJURY” (Anhui University of Chinese Medicine, priority 2025, published 2026).

Data set [1] can be described thus: In vitro pulmonary deposition, next-generation pharmaceutical impactor (NGI). Type of data set: physicochemical. Particulars: 75 L/min, 3.2 s, 10 mg capsules. From the text: The in vitro pulmonary deposition of synephrine DPI samples was investigated using the next-generation pharmaceutical impactor (NGI). The various components of the instrument were connected sequentially, including the NGI device, an adapter, an artificial throat, a pre-separator, and a collection tray. After installation, the airtightness and uniformity of the device were checked. The gas flow rate was 75 L/min. At this gas flow rate, the cutoff values Da of each stage of the collection tray were as follows: S1=7.145 μm, S2=3.971 μm, S3=2.522 μm, S4=1.495 μm, S5=0.835 μm, S6=0.481 μm, S7=0.293 μm, and the micro-orifice collector (MOC)=0.104 μm.
The specific method was as follows: 10 mg synephrine micropowder and API were added to No. 3 hydroxypropyl methylcellulose capsules, respectively, and then loaded into a single-capsule inhalation device. After connecting to an NGI, the measurement was performed. Five capsules were inhaled each time. The inhalation flow rate was 75 L/min, and the inhalation duration was 3.2 s. Drug powder deposited at each stage of the NGI was collected using ultrapure water. The synephrine content was determined under UV conditions, and the FPF and respirable fraction (RF) were calculated.

A short description of data set [2]: Pharmacokinetic study in rats, plasma synephrine by LC-MS/MS. Type of data set: in vivo, rat. Particulars: for Cmax: rat plasma. The protocol:
SPF-grade male SD rats, weighing 180-220 g, were housed under identical experimental conditions: temperature (22±1)° C., relative humidity (55±5) %, and a 12-hour light/dark cycle. They had free access to food and water and underwent a one-week acclimatization period before the experiment.
Column: Hypersil GOLD C8 (100 mm×2.1 mm; 3 μm); Mobile phase: Phase A: 0.1% formic acid aqueous solution, Phase B: acetonitrile; Flow rate: 0.3 mL/min; Column temperature: 40° C.; Injection volume: 2 μL; Gradient elution program: 0-1 min, 5% B; 1-4 min, 5%-90% B; 4-5 min, 90%-5% B.
Mass spectrometry was performed in electrospray ionization (ESI) positive ion scanning mode, using multiple reaction monitoring (MRM) detection mode. The collision gas was high-purity nitrogen; capillary voltage: 3.5 kV; nebulizer pressure: 45 psi; desiccator temperature: 300° C.; drying gas flow rate: 5 L/min (N2); sheath gas temperature: 250° C.; sheath gas flow rate: 11 L/min (N2).
Experimental animals were randomly divided into three groups: (1) tail vein injection group, (2) pulmonary inhalation group, and (3) gavage group, with 5 animals in each group. Animals were fasted for 12 h before administration but had free access to water.
Rats were fasted for 12 hours before the experiment but were allowed free access to water. The rats were weighed to calculate the dosage and numbered. After administration, 0.2 mL of blood was collected from the orbital vein at time points of 2 min, 5 min, 10 min, 15 min, 30 min, 1 h, 2 h, 3 h, 4 h, and 6 h. The blood samples were placed in an EP tube containing heparin sodium and were centrifuged at 3500 rpm for 15 min. The supernatant plasma was separated and stored at −80° C. freezer.
190 μL of a rat plasma sample was accurately pipetted into an EP tube. Then, 10 μL of an internal standard solution was added, and the sample was vortexed for 60 s. Next, 400 μL of acetonitrile was added, and the sample was vortexed for 60 s to precipitate proteins. The sample was then centrifuged at 10000 rpm for 15 mins, and the supernatant was passed through a 0.22 μm microporous filter membrane. Finally, the filtered sample was placed in a glass insert for LC-MS/MS analysis.

Data set [3] relates to LPS-induced ALI model in rats. The experiment in a line: Lung wet-to-dry weight ratio in LPS-induced rat ALI model. Type of data set: in vivo. Particulars: SYN 9 mg/kg gavage; SYN-DPI 4.5-18 mg/kg inhalation; 6 h after administration. As for the experimental part: (§1) Male SD rats were acclimatized for one week, and an ALI model in rats was established using tracheal instillation of LPS. The specific modeling steps were as follows: the rats were first anesthetized with isoflurane, then the rats were fixed in a supine position to facilitate intratracheal administration to the lungs. LPS (8 mg/kg) was nebulized into the alveoli using a microsprayer. The microsprayer was then removed, the animal was placed in a vertical position, and gently rotated for 30 seconds to ensure even distribution of LPS throughout the lungs.
(§2) Referring to relevant literature on synephrine, the maximum human dose of synephrine is 100 mg. Based on the clinically equivalent dose, the dose administered to the rats via gavage was 9 mg/kg, and the low-dose inhalation group was 4.5 mg/kg.
After instillation of the left lung of the rats, the left and right lungs were collected, washed with physiological saline, and dried. The lower lobe of the left lung was used to determine the wet-to-dry weight ratio of the rat lung tissue. […]
The lower lobe of the left lung of the rat was collected, surface blood was removed, surface moisture was wiped off, and the lobe was weighed. The wet weight was recorded. The lobe was then dried in a 60° C. oven for 24 hours, and the dry weight was recorded. The degree of pulmonary edema was evaluated by calculating the lung wet/dry weight ratio. […]

Data set [4] has as its system LPS-induced ALI model in rats. The experiment in a line: Serum inflammatory cytokine levels (ELISA) in LPS-induced rat ALI model. Type of data set: in vivo. Particulars: P<0.0001; 6 h after administration. The protocol: as §1, §2
Six hours after drug administration, rats were anesthetized by intraperitoneal injection of sodium pentobarbital. […]
Rat serum was collected, and the levels of TNF-α, IL-6, IL-8, IL-1β, and IL-1α were measured separately according to the rat ELISA kit instructions. The OD value was measured at 450 nm using a microplate reader. A standard curve was plotted with the concentrations of TNF-α, IL-8, IL-6, IL-1β, and IL-1α standards on the x-axis and the absorbance values on the y-axis. The concentrations of TNF-α, IL-6, IL-8, IL-1β, and IL-1α in serum were calculated based on the standard curve.
(In general: ELISA stands for enzyme-linked immunosorbent assay.)

Data set [5] deals with LPS-induced ALI model in rats. Kind of data set: HE and Masson staining of lung tissue in LPS-induced rat ALI model. Type of data set: in vivo. The protocol: as §1, §2
Lung tissue fixed in 4% paraformaldehyde was dehydrated, routinely embedded in paraffin, and prepared into 5 μm sections. After dewaxing, the sections were routinely stained with HE, dehydrated, mounted, and observed under a microscope to examine the structure and morphological characteristics of the rat lung tissue in each group.
The sections were routinely dewaxed to water. Hydrophobic zones were drawn, and Bouin's solution was added dropwise. The sections were then covered and incubated at 37° C. After incubation, they were rinsed with running water until the yellow color disappeared. […]

Data set [6] has as its system LPS-induced RAW264.7 cells. The experiment in a line: LPS-induced RAW264.7 cellular inflammation model, ELISA of inflammatory mediators. The data set is classed as cell-based. Particulars: Mus musculus, LPS-stimulated RAW264.7. As for the experimental part:
RAW264.7 cells in logarithmic growth phase were seeded at 100 μL per well in a 96-well plate and cultured at 37° C. and 5% CO2 for 24 hours. The supernatant was aspirated and discarded. 100 μL of medium containing synephrine at an appropriate concentration was added to each well for pretreatment for 1 h, followed by the addition of LPS-containing medium. The cells were then co-incubated with the test substance for 24 hours.
Based on the CCK-8 assay results, RAW264.7 cells in logarithmic growth phase were seeded in 96-well plates and divided into the control group, LPS group, LPS+SYN group, and LPS+SYN-DPI group. A cellular inflammation model was established. After culturing for 24 h, the supernatant from each well was collected and centrifuged at 3500 rpm for 10 min. The supernatant was collected and the subsequent procedures were strictly performed according to the ELISA kit instructions. The absorbance was measured at 450 nm using a microplate reader, and the contents of interleukin (IL)-1B, IL-6, tumor necrosis factor (TNF)-α, and nitric oxide (NO) were calculated.

Data set [7] in a line: Solubility of synephrine API in different solvents by HPLC. The data set is classed as physicochemical. As for the experimental part:
Column: Agilent C18 (250 mm×4.6 mm, 5 μm) column; mobile phase: 0.1% formic acid (A)-acetonitrile (B); detection wavelength: 273 nm; flow rate: 1 mL/min; column temperature: 30° C.; injection volume: 10 μL; isocratic elution: 1 min to 10 min; 97% A.
Excess synephrine API was weighed and placed in an EP tube. Then, 1.00 mL of each of the following solutions was added: water, anhydrous ethanol, isopropanol, ethyl acetate, n-butanol, n-octanol, acetonitrile, and n-hexane. The mixture was sonicated (300 W, 40 kHz) until no further dissolution occurred. The tube was then centrifuged at 6000 r min^−1 for 15 min, filtered through a 0.22 μm microporous membrane, and the filtrate was diluted with methanol and analyzed under liquid chromatography conditions. The solubility of synephrine in different solvents was calculated.

Data set [8] in a line: Hygroscopicity by dynamic vapor sorption (DVS). Type of data set: physicochemical. As for the experimental part: The hygroscopicity of synephrine API and DPI was analyzed using a dynamic vapor sorption (DVS) analyzer. The experimental temperature was set to room temperature (25° C.), the carrier gas was nitrogen, and the total gas flow rate was 200 mL/min. Samples were weighed and placed on the balance tray of the DVS analyzer. The relative humidity (RH) change program was set as required, and the humidity equilibrium time was also set.

Data set [9] has as its system LPS-induced ALI model in rats. The experiment in a line: Total protein content in BALF (BCA assay) of ALI rats. Type of data set: in vivo, rat. Particulars: 6 h after administration. As for the experimental part: as §1, §2
After blood collection, the rats were placed in a supine position on the operating table until their hearts stopped beating. […]
This study used the bicinchoninic acid (BCA) assay to determine the total protein content in BALF. The tissue weight was accurately measured, and physiological saline was added according to the weight-to-volume ratio. […] The test solution was added sequentially according to the protein quantification kit instructions. The absorbance was measured at 562 nm using a microplate reader, and the protein concentration in BALF was calculated.

Each structure is given as a SMILES string. Converted amounts (≈) assume the structure as drawn. Where two headings read alike, the source gives them in different places.

For `CNCC(O)c1ccc(O)cc1` (stereo not drawn) [SYN, Synephrine], the “effective in vitro lung deposition rate” value in data set [1] is recorded as 2.25%. In data set [1], this molecule returned an emptying rate of 90.98%. Further, the “fine particle fraction (FPF)” value in data set [1] is 2.69%. Also, in data set [1], the “respirable fraction (RF)” value is listed as 41.26%. The maximum concentration (Cmax) (commonly the peak of the concentration-time curve) in data set [2] (iv, injection group (tail vein)) amounted to 1030 ng/mL; in data set [2] (po, gavage group) it was 302 ng/mL. The AUC(0-inf) – broadly, the area under the concentration-time curve extrapolated to infinity – in data set [2] (plasma, iv, rat, injection group (tail vein)) came to 1540 ng·h/mL. Moreover, the half-life (as a rule, how long it takes for the measured level to halve) in data set [2] (plasma, iv, rat, injection group (tail vein), read-out: half-life (t½)) worked out at 5.33 h; in data set [2] (plasma, po, rat, gavage group, read-out: half-life t½), 2.29 h. The bioavailability in [2] (plasma, po, rat, gavage group, read-out: AUC(0-∞) as % of the injection group) stood at 64.5%. The exposure AUC(0-t) (commonly the area under the concentration-time curve up to a stated or last time point) in [2] (plasma, po, rat, gavage group, read-out: area-under-the-curve (AUC)(0-t)) was determined as 876 ng·h/mL. In [2] (rat, gavage group), the “Cmax as % of the injection group” value is given as 29.24%. The “half-life (t½) as % of the injection group” value in data set [2] (rat, gavage group) was 43.01%. Further, in data set [3], the “wet-to-dry weight ratio of rat lungs compared to the model group” value is recorded as “significant reduction”. Besides, in data set [4], the “expression levels of serum inflammatory cytokines (IL-1α, IL-1β, IL-6, IL-8, TNF-α) compared to the model group” value is “significantly decreased”. Besides, the “pathological changes, SYN group compared with low-dose SYN-DPI group” value in data set [5] (SYN 9 mg/kg gavage vs SYN-DPI 4.5 mg/kg inhalation) was “no significant difference in pathological changes”. The inhibition – broadly, the share of the control response that was lost under treatment – at 200 µM in data set [6] (200 μM, read-out: inhibition of NO production) was 16.1%. Further, the inhibition at 400 µM in data set [6] (400 μM, read-out: inhibition rate of IL-6 production) is 23.3%. Besides, the solubility – broadly, the concentration that dissolves in the medium under given conditions – in [7] (organic solvent or mixture, solvent: Acetonitrile) stood at 10620 ± 60 µg/mL (≈ 63.5 mM); in data set [7] (organic solvent or mixture, solvent: Anhydrous Ethanol), 17200 ± 270 µg/mL (≈ 103 mM); in [7] (organic solvent or mixture, solvent: Ethyl Acetate), 640 ± 10 µg/mL (≈ 3.83 mM); in [7] (organic solvent or mixture, solvent: Isopropanol) it was 7060 ± 120 µg/mL (≈ 42.2 mM); in [7] (organic solvent or mixture, solvent: n-Butanol), 8760 ± 20 µg/mL (≈ 52.4 mM); in data set [7] (organic solvent or mixture, solvent: n-Octanol), 3660 ± 10 µg/mL (≈ 21.9 mM). In data set [7] (solvent: Water), this molecule yielded a solubility of 13440 ± 20 µg/mL (≈ 80.4 mM). The “Solubility (in words)” value in data set [7] (solvent: n-hexane) was “almost insoluble”. The “hygroscopicity class (Chinese Pharmacopoeia 2020, 9103 guidelines)” value in data set [8] (90% RH) is “no or almost no hygroscopicity (hygroscopic weight gain less than 0.2%)”. The “maximum moisture adsorption / moisture absorption weight gain” value in [8] (90% RH, 25° C.) came out at 0.12%. In addition, the “moisture absorption weight gain percentage” value in data set [8] (normal storage conditions (60% RH), 25° C.) was “less than 0.2%”.
On to `C[C@@H]1C[C@H]2[C@@H]3CCC4=CC(=O)C=C[C@]4(C)[C@@]3(F)[C@@H](O)C[C@]2(C)[C@@]1(O)C(=O)CO` [Dex], for which, in data set [9], the “total protein content in BALF compared with the LPS group” value was “significantly improve alveolar interstitial space”. Further, the “expression levels of serum inflammatory cytokines (IL-1α, IL-1β, IL-6, IL-8, TNF-α) compared to the model group” value in [4] was “significantly decreased”. Further, the “pathological damage of rat lung tissue (HE, Masson)” value in data set [5] (Dex group, 3 mg/kg gavage) is on record as “significantly alleviated”.
